Assay results taken from patent publication US20050009776A1, “Method of treating atrial fibrillation or atrial flutter” (Aderis Pharmaceuticals, Inc., priority 2003, published 2005).
Marks after values point to notes of the source that are not given here.

Tests used:
[1] = test system: A1 receptor / A3 receptor; experiment: Affinity for adenosine A1 receptor relative to A3 receptor; type: binding
From the text: Therefore, DTI-0009 may be capable of terminating episodes of supraventricular arrythymias at doses that have little effect on normal heart rate or blood pressure.

[2] = test system: patients with atrial fibrillation; experiment: Example 4: placebo-controlled 15-minute i.v. infusion, heart rate and blood pressure in atrial fibrillation; type: in vivo, human
Protocol: A double blind, placebo-controlled study was designed to establish the i.v. dose range of DTI-0009 that safely reduces heart rates in patients with atrial fibrillation. […] The patients' heart rates and blood pressures were measured periodically throughout the treatment period and for 75 and 80 minutes post-infusion, respectively. Safety assessments were made throughout the study and for up to three to seven days post-dose.

**Q.** Which “affinity for the A1 receptor higher than for the A3 receptor” value [1] does the source give for CCNC(=O)[C@H]1O[C@@H](n2cnc3c(NC4CCCC4)ncnc32)[C@H](O)[C@@H]1O [DTI-0009, N^6-cyclopentyl-5′-(N-ethyl)carboxamidoadenosine] here?
**A.** Its value is 11 fold.

**Q.** And the DBP ([2]; 2 μg/kg (11 patients), 30 minutes after start of infusion (BP 35 minutes, footnote c), Baseline 82.2)?
**A.** The DBP was 77.8^e mmHg.

**Q.** What about the SBP ([2]; 2 μg/kg (11 patients), 30 minutes after start of infusion (BP 35 minutes, footnote c), Baseline 130.7) of the same compound?
**A.** The SBP was 129.5^e mmHg.

**Q.** And the DBP ([2]; 2 μg/kg (n = 12), 5 minutes after start of infusion, Baseline 82.2)?
**A.** Its DBP is 87.7 mmHg.

**Q.** And the HR ([2]; 2 μg/kg (n = 12), 5 minutes after start of infusion, Baseline 129.9)?
**A.** Its HR is 117.1^a bpm.

**Q.** And the SBP ([2]; 2 μg/kg (n = 12), 5 minutes after start of infusion, Baseline 130.7)?
**A.** Its SBP is 136.6 mmHg.

**Q.** What about the DBP ([2]; 2 μg/kg (n = 12), 15 minutes after start of infusion, Baseline 82.2) of the same compound?
**A.** Its DBP is 84.6 mmHg.

**Q.** And the HR ([2]; 2 μg/kg (n = 12), 15 minutes after start of infusion, Baseline 129.9)?
**A.** Its HR is 102.4^b bpm.

**Q.** And the SBP ([2]; 2 μg/kg (n = 12), 15 minutes after start of infusion, Baseline 130.7)?
**A.** The SBP was 134.4 mmHg.

**Q.** What about the HR ([2]; 2 μg/kg (n = 12), 30 minutes after start of infusion, Baseline 129.9) of the same compound?
**A.** The HR was 112.1^a bpm.

**Q.** And the HR ([2]; 4 μg/kg (8 patients), 30 minutes after start of infusion, Baseline 143.9)?
**A.** The HR was 115.1^a,d bpm.

**Q.** And the DBP ([2]; 4 μg/kg (n = 9), 5 minutes after start of infusion, Baseline 75.0)?
**A.** The DBP was 76.3 mmHg.

**Q.** What about the SBP ([2]; 4 μg/kg (n = 9), 5 minutes after start of infusion, Baseline 132.1) of the same compound?
**A.** The SBP was 127.4 mmHg.

**Q.** And the HR ([2]; 4 μg/kg (n = 9), 5 minutes after start of infusion, Baseline 143.9)?
**A.** Its HR is 114.9^a bpm.

**Q.** What about the DBP ([2]; 4 μg/kg (n = 9), 15 minutes after start of infusion, Baseline 75.0) of the same compound?
**A.** Its DBP is 68.7 mmHg.

**Q.** And the SBP ([2]; 4 μg/kg (n = 9), 15 minutes after start of infusion, Baseline 132.1)?
**A.** The SBP was 132.8 mmHg.

**Q.** And the HR ([2]; 4 μg/kg (n = 9), 15 minutes after start of infusion, Baseline 143.9)?
**A.** The HR was 100.1^b bpm.

**Q.** And the DBP ([2]; 4 μg/kg (n = 9), 30 minutes after start of infusion (BP 35 minutes, footnote c), Baseline 75.0)?
**A.** The DBP was 72.2 mmHg.

**Q.** What about the SBP ([2]; 4 μg/kg (n = 9), 30 minutes after start of infusion (BP 35 minutes, footnote c), Baseline 132.1) of the same compound?
**A.** Its SBP is 122.0 mmHg.

**Q.** What about the DBP ([2]; 6 μg/kg (n = 9), 5 minutes after start of infusion, Baseline 69.4) of the same compound?
**A.** Its DBP is 72.9 mmHg.

**Q.** And the SBP ([2]; 6 μg/kg (n = 9), 5 minutes after start of infusion, Baseline 122.1)?
**A.** The SBP was 126.8 mmHg.

**Q.** And the HR ([2]; 6 μg/kg (n = 9), 5 minutes after start of infusion, Baseline 140.2)?
**A.** The HR was 117.1^a bpm.

**Q.** What about the DBP ([2]; 6 μg/kg (n = 9), 15 minutes after start of infusion, Baseline 69.4) of the same compound?
**A.** The DBP was 70.4 mmHg.

**Q.** What about the SBP ([2]; 6 μg/kg (n = 9), 15 minutes after start of infusion, Baseline 122.1) of the same compound?
**A.** Its SBP is 126.8 mmHg.

**Q.** What about the HR ([2]; 6 μg/kg (n = 9), 15 minutes after start of infusion, Baseline 140.2) of the same compound?
**A.** The HR was 100.4^b bpm.

**Q.** And the DBP ([2]; 6 μg/kg (n = 9), 30 minutes after start of infusion (BP 35 minutes, footnote c), Baseline 69.4)?
**A.** Its DBP is 68.7 mmHg.

**Q.** And the SBP ([2]; 6 μg/kg (n = 9), 30 minutes after start of infusion (BP 35 minutes, footnote c), Baseline 122.1)?
**A.** Its SBP is 115.4 mmHg.

**Q.** And the HR ([2]; 6 μg/kg (n = 9), 30 minutes after start of infusion, Baseline 140.2)?
**A.** The HR was 114.4^a bpm.

**Q.** And the DBP ([2]; 8 μg/kg (n = 7), 5 minutes after start of infusion, Baseline 82.3)?
**A.** Its DBP is 85.1 mmHg.

**Q.** What about the SBP ([2]; 8 μg/kg (n = 7), 5 minutes after start of infusion, Baseline 131.6) of the same compound?
**A.** Its SBP is 141.4 mmHg.

**Q.** And the HR ([2]; 8 μg/kg (n = 7), 5 minutes after start of infusion, Baseline 133.7)?
**A.** Its HR is 101.4^a bpm.

**Q.** What about the DBP ([2]; 8 μg/kg (n = 7), 15 minutes after start of infusion, Baseline 82.3) of the same compound?
**A.** Its DBP is 80.3 mmHg.

**Q.** And the SBP ([2]; 8 μg/kg (n = 7), 15 minutes after start of infusion, Baseline 131.6)?
**A.** Its SBP is 145.3 mmHg.

**Q.** What about the HR ([2]; 8 μg/kg (n = 7), 15 minutes after start of infusion, Baseline 133.7) of the same compound?
**A.** Its HR is 90.9^a bpm.

**Q.** What about the DBP ([2]; 8 μg/kg (n = 7), 30 minutes after start of infusion (BP 35 minutes, footnote c), Baseline 82.3) of the same compound?
**A.** The DBP was 77.4 mmHg.

**Q.** And the SBP ([2]; 8 μg/kg (n = 7), 30 minutes after start of infusion (BP 35 minutes, footnote c), Baseline 131.6)?
**A.** The SBP was 134.4 mmHg.

**Q.** And the HR ([2]; 8 μg/kg (n = 7), 30 minutes after start of infusion, Baseline 133.7)?
**A.** The HR was 96.3^a bpm.

**Q.** And the DBP ([2]; 10 μg/kg (n = 8), 5 minutes after start of infusion, Baseline 75.9)?
**A.** Its DBP is 83.1 mmHg.

**Q.** What about the SBP ([2]; 10 μg/kg (n = 8), 5 minutes after start of infusion, Baseline 128.3) of the same compound?
**A.** The SBP was 140.6 mmHg.

**Q.** What about the HR ([2]; 10 μg/kg (n = 8), 5 minutes after start of infusion, Baseline 142.5) of the same compound?
**A.** The HR was 110.0^b bpm.

**Q.** And the DBP ([2]; 10 μg/kg (n = 8), 15 minutes after start of infusion, Baseline 75.9)?
**A.** Its DBP is 73.0 mmHg.

**Q.** And the SBP ([2]; 10 μg/kg (n = 8), 15 minutes after start of infusion, Baseline 128.3)?
**A.** The SBP was 125.8 mmHg.

**Q.** What about the HR ([2]; 10 μg/kg (n = 8), 15 minutes after start of infusion, Baseline 142.5) of the same compound?
**A.** The HR was 95.4^a bpm.

**Q.** What about the DBP ([2]; 10 μg/kg (n = 8), 30 minutes after start of infusion (BP 35 minutes, footnote c), Baseline 75.9) of the same compound?
**A.** The DBP was 71.3 mmHg.

**Q.** And the SBP ([2]; 10 μg/kg (n = 8), 30 minutes after start of infusion (BP 35 minutes, footnote c), Baseline 128.3)?
**A.** Its SBP is 126.1 mmHg.

**Q.** And the HR ([2]; 10 μg/kg (n = 8), 30 minutes after start of infusion, Baseline 142.5)?
**A.** Its HR is 104.6^a bpm.

**Q.** And the DBP ([2]; 12 μg/kg (n = 4), 5 minutes after start of infusion, Baseline 80.5)?
**A.** The DBP was 82.5 mmHg.

**Q.** What about the SBP ([2]; 12 μg/kg (n = 4), 5 minutes after start of infusion, Baseline 119.5) of the same compound?
**A.** Its SBP is 131.5 mmHg.

**Q.** What about the HR ([2]; 12 μg/kg (n = 4), 5 minutes after start of infusion, Baseline 120.0) of the same compound?
**A.** Its HR is 82.0^a bpm.

**Q.** What about the DBP ([2]; 12 μg/kg (n = 4), 15 minutes after start of infusion, Baseline 80.5) of the same compound?
**A.** Its DBP is 78.5 mmHg.

**Q.** What about the SBP ([2]; 12 μg/kg (n = 4), 15 minutes after start of infusion, Baseline 119.5) of the same compound?
**A.** The SBP was 122.5 mmHg.

**Q.** What about the HR ([2]; 12 μg/kg (n = 4), 15 minutes after start of infusion, Baseline 120.0) of the same compound?
**A.** The HR was 74.5^a bpm.

**Q.** What about the DBP ([2]; 12 μg/kg (n = 4), 30 minutes after start of infusion (BP 35 minutes, footnote c), Baseline 80.5) of the same compound?
**A.** Its DBP is 68.5^a mmHg.

**Q.** What about the SBP ([2]; 12 μg/kg (n = 4), 30 minutes after start of infusion (BP 35 minutes, footnote c), Baseline 119.5) of the same compound?
**A.** The SBP was 118.5 mmHg.

**Q.** What about the HR ([2]; 12 μg/kg (n = 4), 30 minutes after start of infusion, Baseline 120.0) of the same compound?
**A.** Its HR is 88.0^a bpm.

**Q.** What about the “changes in systolic or diastolic blood pressures” value ([2]; any treatment group, infusion period and up to 80 minutes post-infusion) of the same compound?
**A.** Its value is “no clinically significant changes”.
